ChEMBL document CHEMBL1201862, “PubChem BioAssay data set” (2004)
The source made the active and inactive calls.

Experiments:
Aminopeptidase N = biological target: T1, Aminopeptidase N (Plasmodium falciparum FcB1/Columbia, UniProt O96935); assay: P. falciparum M1AAP inhibitors, biochemical, fluorogenic H-Leu-NHMec substrate, 1536-well (AID 1445); parameters: species or system Plasmodium falciparum 3D7, 3D7
T1 sequence (O96935 whole entry): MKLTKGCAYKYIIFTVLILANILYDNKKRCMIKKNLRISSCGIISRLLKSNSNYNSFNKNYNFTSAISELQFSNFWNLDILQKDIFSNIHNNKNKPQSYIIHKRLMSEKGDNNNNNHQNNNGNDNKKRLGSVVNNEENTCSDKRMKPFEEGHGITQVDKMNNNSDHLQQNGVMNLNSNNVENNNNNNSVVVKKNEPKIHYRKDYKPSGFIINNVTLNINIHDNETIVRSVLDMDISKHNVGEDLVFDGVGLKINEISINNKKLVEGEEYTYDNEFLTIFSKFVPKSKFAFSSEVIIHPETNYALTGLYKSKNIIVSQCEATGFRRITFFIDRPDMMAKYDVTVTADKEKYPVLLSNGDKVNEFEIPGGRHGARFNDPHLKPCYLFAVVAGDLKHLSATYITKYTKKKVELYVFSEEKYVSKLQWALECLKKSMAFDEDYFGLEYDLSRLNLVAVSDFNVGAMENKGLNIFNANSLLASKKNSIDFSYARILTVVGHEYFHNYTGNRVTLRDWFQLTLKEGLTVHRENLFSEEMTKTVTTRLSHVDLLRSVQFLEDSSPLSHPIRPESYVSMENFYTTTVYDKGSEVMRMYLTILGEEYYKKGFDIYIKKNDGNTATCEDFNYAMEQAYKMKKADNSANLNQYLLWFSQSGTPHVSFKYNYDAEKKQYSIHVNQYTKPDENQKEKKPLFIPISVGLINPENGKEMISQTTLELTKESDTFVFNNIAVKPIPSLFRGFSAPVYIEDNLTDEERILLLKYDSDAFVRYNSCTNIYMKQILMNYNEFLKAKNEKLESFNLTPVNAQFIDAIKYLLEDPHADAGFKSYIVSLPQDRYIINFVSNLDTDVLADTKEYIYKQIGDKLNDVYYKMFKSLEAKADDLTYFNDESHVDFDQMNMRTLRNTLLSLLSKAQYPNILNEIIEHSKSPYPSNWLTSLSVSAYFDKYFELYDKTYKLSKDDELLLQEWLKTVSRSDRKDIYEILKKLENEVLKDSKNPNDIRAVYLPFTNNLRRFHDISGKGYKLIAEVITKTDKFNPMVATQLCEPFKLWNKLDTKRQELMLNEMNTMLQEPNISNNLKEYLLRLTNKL

Streptococcus = assay: Group A Streptococcus viability loss, dose response, counter-screen for streptokinase expression inhibitor project, luminescence, BacTiterGlo (AID 1915); assay type: functional, organism-based;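 note: potency for reduction of bacterial viability or growth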
[1] = system: Streptococcus sp. 'group A'; assay: growth inhibition of control SK(-) GAS strain, dose response, counter-screen for streptokinase expression inhibitor project, luminescence, kanamycin, BacTiterGlo, confirmation (AID 1900); assay type: functional, organism-based
[2] = biological target: T2, Replicative DNA helicase DnaB (Mycobacterium tuberculosis, UniProt P9WMR3); assay: DnaB intein splicing inhibitors, dose response, biochemical, cell-free fluorescence (AID 449749); assay type: functional
T2 sequence (P9WMR3 whole entry): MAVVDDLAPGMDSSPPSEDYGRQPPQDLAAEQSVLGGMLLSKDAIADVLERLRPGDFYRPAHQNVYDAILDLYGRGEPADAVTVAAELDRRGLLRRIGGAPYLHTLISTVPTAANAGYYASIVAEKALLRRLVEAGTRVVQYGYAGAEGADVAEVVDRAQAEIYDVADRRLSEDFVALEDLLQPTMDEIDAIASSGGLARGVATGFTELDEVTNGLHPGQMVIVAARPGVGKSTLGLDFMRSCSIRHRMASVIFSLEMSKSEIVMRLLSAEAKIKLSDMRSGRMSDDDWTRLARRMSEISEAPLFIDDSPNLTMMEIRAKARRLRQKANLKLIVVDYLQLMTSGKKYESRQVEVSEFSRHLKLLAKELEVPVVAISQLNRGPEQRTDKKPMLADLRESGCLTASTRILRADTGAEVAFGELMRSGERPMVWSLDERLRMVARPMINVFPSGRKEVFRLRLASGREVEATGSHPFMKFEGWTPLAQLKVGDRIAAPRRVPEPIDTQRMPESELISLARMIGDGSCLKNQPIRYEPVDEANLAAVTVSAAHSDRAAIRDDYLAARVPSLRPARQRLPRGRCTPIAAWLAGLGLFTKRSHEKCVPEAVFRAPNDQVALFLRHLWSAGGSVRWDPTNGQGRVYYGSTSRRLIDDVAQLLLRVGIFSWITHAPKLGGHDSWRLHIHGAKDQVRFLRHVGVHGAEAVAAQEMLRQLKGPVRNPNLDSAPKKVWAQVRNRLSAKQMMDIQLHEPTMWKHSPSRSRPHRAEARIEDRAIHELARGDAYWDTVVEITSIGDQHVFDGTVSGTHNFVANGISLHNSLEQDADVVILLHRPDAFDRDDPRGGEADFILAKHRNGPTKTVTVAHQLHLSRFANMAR

[3] = biological target: T3, Mannose-6-phosphate isomerase (Homo sapiens, UniProt P34949); assay: human PMI inhibitors, high substrate, primary screen, biochemical, fluorescence intensity, high mannose 6-phosphate (AID 1220)
T3 sequence (P34949 whole entry): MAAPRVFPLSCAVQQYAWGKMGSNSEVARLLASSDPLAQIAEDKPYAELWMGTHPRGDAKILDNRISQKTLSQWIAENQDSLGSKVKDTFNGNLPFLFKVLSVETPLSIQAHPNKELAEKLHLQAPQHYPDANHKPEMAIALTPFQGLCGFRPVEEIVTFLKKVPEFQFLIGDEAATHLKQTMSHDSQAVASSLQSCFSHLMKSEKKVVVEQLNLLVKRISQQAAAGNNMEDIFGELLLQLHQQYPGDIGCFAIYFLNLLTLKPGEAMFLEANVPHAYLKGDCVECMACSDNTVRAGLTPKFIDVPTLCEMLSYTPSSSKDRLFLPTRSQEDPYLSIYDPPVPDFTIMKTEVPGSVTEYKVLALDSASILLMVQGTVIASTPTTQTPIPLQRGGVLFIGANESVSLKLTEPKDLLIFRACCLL

Protein RecA = biological target: T4, Protein RecA (Mycobacterium tuberculosis, UniProt P9WHJ3); assay: Fluorescence Cell-Free Homogeneous Dose Retest to Identify Inhibitors of RecA-Intein Splicing Activity. [Related pubchem assays (depositor defined):AID2097, AID2223, AID489010, AID492950]; assay type: functional
T4 sequence (P9WHJ3 whole entry): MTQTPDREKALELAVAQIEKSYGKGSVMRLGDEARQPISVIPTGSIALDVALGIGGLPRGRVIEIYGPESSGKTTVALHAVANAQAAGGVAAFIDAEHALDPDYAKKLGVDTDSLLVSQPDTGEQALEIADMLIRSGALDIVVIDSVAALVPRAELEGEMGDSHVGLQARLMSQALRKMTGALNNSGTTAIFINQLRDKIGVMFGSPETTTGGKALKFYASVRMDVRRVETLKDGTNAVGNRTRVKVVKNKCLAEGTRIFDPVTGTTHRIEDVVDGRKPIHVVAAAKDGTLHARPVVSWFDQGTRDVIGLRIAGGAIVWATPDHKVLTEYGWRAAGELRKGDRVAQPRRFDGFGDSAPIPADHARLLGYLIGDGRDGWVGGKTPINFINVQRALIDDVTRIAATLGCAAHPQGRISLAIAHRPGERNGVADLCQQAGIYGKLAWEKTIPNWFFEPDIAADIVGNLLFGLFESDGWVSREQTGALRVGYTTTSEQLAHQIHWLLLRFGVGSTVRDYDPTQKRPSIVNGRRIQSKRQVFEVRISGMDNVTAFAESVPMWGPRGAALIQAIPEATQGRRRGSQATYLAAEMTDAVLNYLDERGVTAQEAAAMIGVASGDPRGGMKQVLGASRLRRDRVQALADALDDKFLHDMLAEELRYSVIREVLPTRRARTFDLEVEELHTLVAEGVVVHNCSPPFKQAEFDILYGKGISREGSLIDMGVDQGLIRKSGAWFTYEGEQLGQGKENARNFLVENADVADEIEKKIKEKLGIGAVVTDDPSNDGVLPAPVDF

[4] = Luminescence Cell-Based Dose Response HTS to Identify Activators of Luciferase Translation or Activity in H4 […] Cells. [Related pubchem assays: 1829 (Project Summary), 1814 (Primary HTS)]; assay type: functional
H4 = assay: Luminescence Cell-Based Dose Response HTS to Identify Activators of 5'UTR Stem-Loop Driven Prion Protein mRNA Translation in H4 Neuroglioblastoma Cells. [Related pubchem assays: 1829 (Project Summary), 1814 (Primary HTS)]; assay type: functional; conditions: Homo sapiens
[5] = Luminescence Cell-Based Dose Confirmation HTS to Identify Activators of 5'UTR Stem-Loop Driven Alpha-Synuclein mRNA Translation in H4 Neuroglioblastoma Cells. [Related pubchem assays: 1829 (Project Summary), 1814 (Primary HTS)]; assay type: functional
Estrogen receptor beta [6] = biological target: T5, Estrogen receptor beta (Homo sapiens, UniProt Q92731);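 note: recombinant ER-beta bound to coactivator SRC1 peptide in presence of estradiol agonist; inhibitors block coactivator peptide binding and lower the FRET signal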
Leucine aminopeptidase = biological target: T6, Leucine aminopeptidase (Plasmodium falciparum 3D7, UniProt Q8IL11); assay: P. falciparum M17LAP inhibitors, primary screen, biochemical, fluorogenic H-Leu-NHMec substrate, 1536-well (AID 1619); assay type: functional
T6 sequence (Q8IL11 whole entry): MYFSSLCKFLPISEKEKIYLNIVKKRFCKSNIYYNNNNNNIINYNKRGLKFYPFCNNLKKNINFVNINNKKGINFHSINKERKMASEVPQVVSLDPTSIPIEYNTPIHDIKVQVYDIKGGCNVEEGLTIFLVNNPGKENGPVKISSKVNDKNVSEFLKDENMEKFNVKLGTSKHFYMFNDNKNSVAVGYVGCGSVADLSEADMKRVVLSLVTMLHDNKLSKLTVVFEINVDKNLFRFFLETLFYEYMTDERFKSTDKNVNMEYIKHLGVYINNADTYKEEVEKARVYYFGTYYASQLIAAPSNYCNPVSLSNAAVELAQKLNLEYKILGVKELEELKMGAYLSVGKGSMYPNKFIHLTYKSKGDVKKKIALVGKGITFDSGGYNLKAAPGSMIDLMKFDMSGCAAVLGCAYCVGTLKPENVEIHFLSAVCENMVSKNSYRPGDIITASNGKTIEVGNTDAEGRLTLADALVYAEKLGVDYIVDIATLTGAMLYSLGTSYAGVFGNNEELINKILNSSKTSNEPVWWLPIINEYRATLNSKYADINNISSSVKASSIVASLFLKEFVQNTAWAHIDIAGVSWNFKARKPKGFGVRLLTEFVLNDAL

Estrogen receptor beta [7] = biological target: T5, Estrogen receptor beta; assay: ERβ–SRC-3 coactivator interaction inhibitors, confirmation, orthogonal assay, biochemical, ELISA, streptavidin-HRP readout (AID 1060)
[8] = cytotoxicity in HEK-293T cells, dose response, cytotoxicity control for BCR NF-kB inhibitor project, luminescence, B-cell screen hits (AID 489021); assay type: functional, cell-based;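 note: HEK-293T cells carrying an NF-kB luciferase reporter; cells exposed to compound for about 14 hours before viability readout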
Beta-galactosidase = Beta-galactosidase (Escherichia coli, UniProt Q8VNN2); assay: Dose response counterscreen for EBI2 assay utilizing the enzyme, b-galactosidase.; assay type: functional
[9] = biological target: T7, Polyadenylate-binding protein 1 (Homo sapiens, UniProt P11940); assay: PABP1 MLLE–PAM2 binding inhibitor potency, dose response, biochemical, fluorescence polarization, FITC-PAM2 peptide (AID 602259); assay type: functional; conditions: read-out: IC50_Mean
[10] = biological target: T7, Polyadenylate-binding protein 1; assay: PABP1 MLLE–PAM2 interaction inhibitors, dose response, miRNA deadenylation inhibitor project, biochemical, fluorescence polarization, Cy5-PAM2 peptide, secondary (AID 602260); assay type: functional; conditions: read-out: IC50_Mean
[11] = ZM109 Env clade C HIV-1 fusion inhibitors, dose response, HeLa effector, CEM target cells, luciferase, cherry-pick (AID 652058); assay type: functional, cell-based
[12] = inhibitors of clade B AD8 Env fusion, dose response, cell-based, cherry-pick (AID 652062); assay type: functional;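 note: luciferase signal from cell-cell fusion driven by HIV-1 clade B AD8 Env; potency is for inhibitors of fusion seen as a drop in luminescence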
[13] = inhibitors of HIV Env-driven cell fusion, dose response, cherry-pick (AID 652057); assay type: functional, cell-based
Vero = Vero cell cytotoxicity, cytotoxicity control for flavivirus capping enzyme inhibitors (AID 588742); assay type: functional; conditions: Chlorocebus sabaeus

T5 sequence (Q92731 whole entry): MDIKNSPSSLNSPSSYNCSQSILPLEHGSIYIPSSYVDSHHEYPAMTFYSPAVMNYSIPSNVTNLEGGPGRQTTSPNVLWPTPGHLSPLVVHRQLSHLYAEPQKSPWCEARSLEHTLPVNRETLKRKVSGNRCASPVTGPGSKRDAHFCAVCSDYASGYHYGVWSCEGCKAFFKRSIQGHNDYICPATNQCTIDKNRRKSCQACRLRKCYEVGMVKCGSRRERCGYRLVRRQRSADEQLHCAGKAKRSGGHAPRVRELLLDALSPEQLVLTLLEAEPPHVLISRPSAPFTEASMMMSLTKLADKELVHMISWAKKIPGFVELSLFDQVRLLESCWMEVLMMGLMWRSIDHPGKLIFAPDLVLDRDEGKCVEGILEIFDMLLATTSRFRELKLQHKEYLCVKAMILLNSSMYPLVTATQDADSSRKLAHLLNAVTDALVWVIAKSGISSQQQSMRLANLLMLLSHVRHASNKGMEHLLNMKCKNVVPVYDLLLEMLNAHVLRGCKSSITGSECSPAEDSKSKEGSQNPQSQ
T7 sequence (P11940 whole entry): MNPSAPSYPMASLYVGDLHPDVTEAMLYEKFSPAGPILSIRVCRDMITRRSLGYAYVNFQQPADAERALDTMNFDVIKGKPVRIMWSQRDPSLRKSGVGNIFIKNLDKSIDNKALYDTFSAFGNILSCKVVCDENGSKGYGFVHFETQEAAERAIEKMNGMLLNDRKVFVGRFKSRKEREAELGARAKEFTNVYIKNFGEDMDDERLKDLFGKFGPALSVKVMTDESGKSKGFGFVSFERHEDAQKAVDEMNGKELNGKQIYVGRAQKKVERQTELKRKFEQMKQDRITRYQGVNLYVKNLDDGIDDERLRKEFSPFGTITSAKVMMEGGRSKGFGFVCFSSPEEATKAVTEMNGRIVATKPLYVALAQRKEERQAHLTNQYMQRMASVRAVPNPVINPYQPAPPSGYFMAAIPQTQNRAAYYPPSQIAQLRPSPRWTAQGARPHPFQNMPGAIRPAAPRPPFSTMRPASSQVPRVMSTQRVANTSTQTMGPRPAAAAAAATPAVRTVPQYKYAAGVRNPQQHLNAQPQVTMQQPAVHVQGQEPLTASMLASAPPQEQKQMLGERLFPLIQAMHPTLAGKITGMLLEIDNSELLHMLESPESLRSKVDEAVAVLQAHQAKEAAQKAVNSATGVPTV
Sequence of Beta-galactosidase (Q8VNN2 whole entry): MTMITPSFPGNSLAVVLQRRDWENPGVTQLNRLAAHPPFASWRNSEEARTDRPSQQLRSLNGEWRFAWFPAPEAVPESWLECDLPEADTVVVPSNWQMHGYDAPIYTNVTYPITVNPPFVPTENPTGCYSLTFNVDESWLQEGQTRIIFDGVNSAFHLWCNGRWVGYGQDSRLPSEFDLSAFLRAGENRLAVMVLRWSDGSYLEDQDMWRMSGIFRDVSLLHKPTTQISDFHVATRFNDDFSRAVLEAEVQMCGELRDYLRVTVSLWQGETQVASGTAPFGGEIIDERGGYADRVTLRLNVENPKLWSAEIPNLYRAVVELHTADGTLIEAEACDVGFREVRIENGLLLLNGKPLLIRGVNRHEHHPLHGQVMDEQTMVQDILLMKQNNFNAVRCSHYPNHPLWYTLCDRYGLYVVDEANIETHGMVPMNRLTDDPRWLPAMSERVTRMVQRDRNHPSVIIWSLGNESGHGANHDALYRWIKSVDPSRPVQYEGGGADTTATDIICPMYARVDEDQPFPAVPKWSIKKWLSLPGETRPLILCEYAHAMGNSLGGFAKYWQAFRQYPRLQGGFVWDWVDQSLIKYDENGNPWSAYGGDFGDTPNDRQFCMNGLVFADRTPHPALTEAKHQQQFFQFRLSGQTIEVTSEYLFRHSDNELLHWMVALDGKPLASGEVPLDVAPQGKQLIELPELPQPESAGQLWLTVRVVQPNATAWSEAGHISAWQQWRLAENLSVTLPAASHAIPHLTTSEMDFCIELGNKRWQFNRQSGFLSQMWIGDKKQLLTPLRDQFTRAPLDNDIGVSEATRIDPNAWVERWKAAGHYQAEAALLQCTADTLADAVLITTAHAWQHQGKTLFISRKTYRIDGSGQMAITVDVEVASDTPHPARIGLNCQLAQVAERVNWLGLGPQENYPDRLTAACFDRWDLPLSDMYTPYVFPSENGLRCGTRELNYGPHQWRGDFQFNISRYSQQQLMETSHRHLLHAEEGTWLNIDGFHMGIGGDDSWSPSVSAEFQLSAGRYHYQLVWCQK

## CCC(=O)N1NC(=C2C(=O)N(C)C(=O)N(C)C2=O)CC1c1ccccc1 (stereo unspecified)
Aminopeptidase N
  IC50: 41.9 µM (active)
Streptococcus
  EC50: 8.9 µM (active)
[1]
  EC50: 4.93 µM (active)

## COc1ccc2ccc3c(c2c1)N=CC1(O3)N(C)c2ccccc2C1(C)C (stereo unspecified)
[2]
  AC50: 2.96 µM (active)
[3]
  IC50: > 50 µM (not active)
Protein RecA
  EC50: 36.2 µM (active)

## N#Cc1nc(/C=C/c2ccccc2)oc1NCCCN1CCOCC1
Aminopeptidase N
  IC50: 39.2 µM (active)
[4]
  EC50: 7.23 µM (active)
H4
  EC50: 38 µM (active)
[5]
  EC50: 22.1 µM (active)

## COc1cccc(-c2[nH]nc3c2C(c2ccoc2)C(C#N)=C(N)O3)c1 (stereo unspecified)
Estrogen receptor beta [6]
  IC50: 20 µM (active)
[2]
  AC50: 8.72 µM (active)
Leucine aminopeptidase
  IC50: 76.8 µM (active)
Estrogen receptor beta [7]
  IC50: > 50 µM (not active)
Protein RecA
  EC50: 1.07 µM (active)

## Cc1ccc(-c2nsc3c(N4CCC(C(N)=O)CC4)ncnc23)cc1
[8]
  IC50: > 80 µM (inactive)

## CCOC(=O)c1c(-c2cccs2)csc1N
[3]
  IC50: > 50 µM (not active)

## Nc1ccc2c(c1)OC1(CCCCC1)O2
[3]
  IC50: > 50 µM (not active)

## CCCc1nn(-c2ccccc2)c2c1C(c1cccs1)C(C#N)=C(N)O2 (stereo unspecified)
[2]
  AC50: 12.6 µM (active)
Beta-galactosidase
  IC50: > 80 µM (inactive)
Protein RecA
  EC50: 3.58 µM (active)

## CCOC(=O)COc1ccc2c(C#N)c3ccccn3c2c1
[9]
  IC50: > 66 µM (inactive)
[10]
  IC50: > 66 µM (inactive)
[3]
  IC50: > 50 µM (not active)

## NC(=O)c1ccsc1NC(=O)COC(=O)Cc1ccsc1
Estrogen receptor beta [6]
  IC50: 5.55 µM (active)
Estrogen receptor beta [7]
  IC50: 1.84 µM (not active)

## Cc1ccc(S(=O)(=O)N(C)C[C@@H]2Oc3cc(Br)ccc3S(=O)(=O)N([C@H](C)CO)C[C@@H]2C)cc1
[11]
  AC50: 7.1 µM (active)
[12]
  AC50: 26.6 µM (active)
[13]
  AC50: 4.58 µM (active)

## COc1cc(/C=N/NC(=O)c2cc3ccccc3cc2O)ccc1OCCN1CCCCC1
Vero
  CC50: > 40 µM (active)
[3]
  IC50: > 50 µM (not active)
